Like-named read-outs stand apart in the source and are kept apart here.
Tests used:
[1] = molecular target: T1, COX-2 (Homo sapiens, UniProt P35354); experiment: Affinity ultrafiltration HPLC-MS/MS (AUF-HPLC-MS/MS) of WE-P with COX-2; design: purchased Wuhan Antgene Biotechnology Co., Ltd. (Wuhan, China); details: relative binding strength = Aactive/Asample × 100%; peak in WE-P; n = 3
T1 sequence (P35354 18-604): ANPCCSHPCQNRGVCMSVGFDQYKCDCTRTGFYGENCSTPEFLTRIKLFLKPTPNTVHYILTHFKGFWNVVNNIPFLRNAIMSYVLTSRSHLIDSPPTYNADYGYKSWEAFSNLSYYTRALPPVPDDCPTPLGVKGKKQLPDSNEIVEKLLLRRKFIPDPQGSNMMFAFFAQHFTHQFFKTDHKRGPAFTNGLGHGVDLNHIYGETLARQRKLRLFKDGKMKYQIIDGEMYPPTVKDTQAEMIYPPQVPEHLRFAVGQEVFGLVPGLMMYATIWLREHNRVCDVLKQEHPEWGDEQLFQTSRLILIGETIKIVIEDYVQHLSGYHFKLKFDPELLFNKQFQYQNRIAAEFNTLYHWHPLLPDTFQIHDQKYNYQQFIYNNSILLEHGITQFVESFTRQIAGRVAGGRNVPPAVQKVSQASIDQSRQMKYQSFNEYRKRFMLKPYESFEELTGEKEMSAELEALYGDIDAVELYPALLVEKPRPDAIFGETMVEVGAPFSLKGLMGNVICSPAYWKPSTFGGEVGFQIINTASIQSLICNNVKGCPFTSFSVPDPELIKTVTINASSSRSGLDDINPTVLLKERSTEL
Experimental: (§1) The relative binding strength (RBS) was employed to compare the variation of the correlated peak areas in the AUF-HPLC-UV chromatograms before and after incubation with enzymes to evaluate the affinity binding abilities between potential ligands and target enzymes. The RBS formula is expressed as: RBS = (Aactive/Asample) × 100%, where the Aactive represents the peak areas obtained from the WE-P samples incubated with COX-2, 5-LOX, Top I or Top II, respectively; the Asample represents the peak areas obtained from WE-P samples without ultrafiltration. […] Namely, the special binding capacities of peak 2 with COX-2, 5-LOX, Top I and Top II might be stronger than that of peak 1. […] Therefore, it could be preliminarily estimated that peak 1 and peak 2 were the main bioactive components in WE-P which were closely related to its anti-inflammatory and anti-proliferative activities. These compounds were then identified based on their MS/MS data, related references and NMR or UPLC-QTOF-MS/MS data of isolated compounds, and the results are shown in Table 2.
(§2) Affinity ultrafiltration screening was slightly modified and carried out according to some previous studies. Firstly, approximately 100 µL of WE-P (10.0 mg/mL) were incubated with 10 µL of enzymes (2 U, COX-2, 5-LOX, Top I or Top II), and 90 µL of Tris-HCl (pH = 7.8) at 37 °C in the darkness for 1 h. […]

[2] = tested on: Hela cell line; design: method as in PMID 32212861; details: previous study; cited from earlier work
[3] = tested on: human mammary adenocarcinoma (MCF-7) cells; design: method as in PMID 33301798; details: previous study; read-out: Anti-proliferative IC50, MCF-7 cells; cited from earlier work
[4] = tested on: MCF-7; design: method as in PMID 27504537; details: 72 h; read-out: GI50 (the 50% growth inhibition in 72 h), MCF-7; cited from earlier work
[5] = tested on: human peripheral blood mononuclear cells (PBMCs) stimulated by lipopolysaccharide (LPS); design: method as in PMID 32877711; details: 100 µM; cited from earlier work
[6] = molecular target: T1, COX-2; experiment: In vitro COX-2 inhibitory assay (COX-2 (human) inhibitor screening assay kit, fluorescence); type: biochemical; design: purchased Beyotime Biotechnology (Shanghai, China) S0168; details: triplicate; read-out: COX-2 inhibition IC50 (isolated compounds)
Experimental: Thirdly, 10 µL COX-2 probe was added into each well. […] The experiments were performed in triplicate.

[7] = tested on: human prostate cancer (PC-3) cells; design: method as in PMID 27504537; details: 72 h; read-out: GI50 (the 50% growth inhibition in 72 h), PC-3; cited from earlier work
[8] = tested on: Hela cells; experiment: Cell proliferative assay (SRB), Hela; type: cell-based; details: Homo sapiens, 48 h, read-out: Anti-proliferative IC50, Hela cells
Experimental: (§3) Human non-small cell lung adenocarcinoma cell line (A549) and human cervical cancer cell line (Hela) were obtained from the American Type Culture Collection (ATCC, Manassas, VA, USA) and maintained in Ham’s F-12K medium supplemented with 10% fetal bovine serum (FBS), 1% penicillin, and 1% streptomycin in a cell incubator under humidified conditions with 5% CO2 at 37 °C, and the procedures were slightly modified from previous method. To evaluate the proliferative activity of A549 cell line and Hela cell line, the SRB assay was carried out according to the manufacturer’s instructions (Beyotime, Shanghai, China). Briefly, these two cell lines were seeded into 96-well plates at a density of 1.0 × 10^4 per well. After 24 h incubation, the tested samples were dissolved in the DMSO and sequentially diluted with cell culture medium and added to each well at the specified concentrations. Cell viability was assessed by SRB 48 h later. Absorbances was measured by a Tecan microplate reader (Tecan Infinite M200 Pro, Tecan Group Ltd., Männedorf, Switzerland) at a wavelength of 540 nm. The experiments were performed in triplicate. The anti-proliferative activities were expressed as IC50. […] The data were expressed as mean ± standard deviation (SD) of three replicates.

[9] = tested on: Hela cells; design: method as in PMID 33301798; details: previous study; read-out: Anti-proliferative IC50, Hela cells; cited from earlier work
[10] = tested on: human colorectal adenocarcinoma (Caco-2) cells; design: method as in PMID 27504537; details: inactive or poorly active; cited from earlier work
[11] = tested on: LNCaP human prostate cancer cell; design: method as in PMID 11858758; details: previous study; cited from earlier work
[12] = molecular target: T2, 5-LOX (Homo sapiens, UniProt P09917); experiment: Affinity ultrafiltration HPLC-MS/MS (AUF-HPLC-MS/MS) of WE-P with 5-LOX; details: relative binding strength = Aactive/Asample × 100%; peak in WE-P; n = 3
T2 construct: purchased Cayman Chemical Co., Ltd. (Ann Arbor, MI, USA)
T2 sequence (P09917 1-674): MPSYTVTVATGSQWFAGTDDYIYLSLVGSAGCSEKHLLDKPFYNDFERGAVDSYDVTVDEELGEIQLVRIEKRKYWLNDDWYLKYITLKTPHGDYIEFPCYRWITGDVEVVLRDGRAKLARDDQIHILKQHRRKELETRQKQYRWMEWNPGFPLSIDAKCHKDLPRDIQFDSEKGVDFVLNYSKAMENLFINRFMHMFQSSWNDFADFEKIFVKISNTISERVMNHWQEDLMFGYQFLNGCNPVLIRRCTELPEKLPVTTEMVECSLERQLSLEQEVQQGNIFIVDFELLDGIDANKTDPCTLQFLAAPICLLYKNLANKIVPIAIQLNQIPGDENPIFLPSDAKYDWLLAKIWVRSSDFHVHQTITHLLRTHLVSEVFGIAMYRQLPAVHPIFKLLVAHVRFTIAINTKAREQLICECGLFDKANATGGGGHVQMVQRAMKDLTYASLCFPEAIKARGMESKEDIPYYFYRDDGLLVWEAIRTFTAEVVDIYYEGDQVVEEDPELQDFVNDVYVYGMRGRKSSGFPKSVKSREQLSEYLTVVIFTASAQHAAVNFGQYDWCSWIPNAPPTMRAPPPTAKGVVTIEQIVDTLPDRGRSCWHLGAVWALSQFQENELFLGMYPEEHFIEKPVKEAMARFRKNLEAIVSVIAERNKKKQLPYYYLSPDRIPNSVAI
Experimental: as §1, §2

[13] = tested on: A549 cells; design: method as in PMID 33301798; details: previous study; read-out: Anti-proliferative IC50, A549 cells; cited from earlier work
[14] = tested on: RAW 264.7 cell line; design: method as in doi:10.1016/j.phytol.2019.01.020; details: LPS-stimulated RAW 264.7; read-out: Inhibition of NO production IC50; cited from earlier work
[15] = tested on: Top I; experiment: Affinity ultrafiltration HPLC-MS/MS (AUF-HPLC-MS/MS) of WE-P with Top I; details: relative binding strength = Aactive/Asample × 100%; peak in WE-P; n = 3
Experimental: as §1, §2

[16] = tested on: A549 cells; experiment: Cell proliferative assay (SRB), A549; type: cell-based; details: Homo sapiens, 48 h, read-out: Anti-proliferative IC50, A549 cells
Experimental: as §3

[17] = tested on: Top II; experiment: Affinity ultrafiltration HPLC-MS/MS (AUF-HPLC-MS/MS) of WE-P with Top II; details: relative binding strength = Aactive/Asample × 100%; peak in WE-P; n = 3
Experimental: as §1, §2

Structure (SMILES)	UF-RBS (%) COX-2 [1]	Anti-proliferative activity on Hela cell line [2]	IC50 [3]	GI50 [4]	Release of GM-CSF [5]	Release of IL-1β [5]	Release of IL-2 [5]	Release of TNF-α [5]	IC50 [6]	GI50 [7]	IC50 [8]	IC50 [9]	GI50 [10]	Cytotoxicity in cultured LNCaP cells [11]	UF-RBS (%) 5-LOX [12]	IC50 [13]	IC50 [14]	UF-RBS (%) Top I [15]	IC50 [16]	UF-RBS (%) Top II [17]
COc1cc(C2Oc3c(OC)cc(/C=C/C(=O)NCCc4ccc(O)cc4)cc3C2C(=O)NCCc2ccc(O)cc2)ccc1O (stereo not drawn) [Compound 2, N-trans-grossamide]	27.39 ± 1.58%	moderate anti-proliferative activity	11.4 ± 1.62 µM	24 µM	1.61 % of LPS control	2.14 % of LPS control	11.61 % of LPS control	0.06 % of LPS control	1.95 ± 0.381 µM	21 µM	72.8 ± 0.839 µM	20.1 ± 3.05 µM	> 100 µM	moderate cytotoxicity	42.00 ± 1.26%	13.5 ± 3.66 µM	52.5 ± 6.1 µM	76.2 ± 5.20%	> 100 µM	58.57 ± 3.82%
COc1cc(C2Oc3c(OC)cc(/C=C\C(=O)NCCc4ccc(O)cc4)cc3C2C(=O)NCCc2ccc(O)cc2)ccc1O (stereo not drawn) [Compound 1, N-cis-grossamide]	20.15 ± 0.12%	–	–	–	–	–	–	–	4.41 ± 0.249 µM	–	84.4 ± 1.79 µM	–	–	–	16.74 ± 0.65%	–	–	34.25 ± 2.81%	> 100 µM	24.53 ± 1.54%
